In patent US8334316B2, “Substituted organosulfur compounds and methods of using thereof” (ACEA Biosciences, Inc., priority 2004, dated 2012):
Where “and” joins values, the source holds several entries; their conditions need not be identical. Identical values can stand only once. Marks after values point to notes of the source that are not given here.

Key:
[1] = system: Bcap-37 human breast cancer; test: Bcap-37 human breast cancer xenograft in nude mice, dosing from 24 h after transplantation (Example 3); assay type: in vivo; details: for tumor inhibition rate %: vs solvent control
Description: Both male and female mice were used. […] Test control. […] Preparation and Administration of Test Compounds. […] For human tumor xenograft model, all used materials, including animal food, animal cage, supporting materials and apparatus contacted by animals, were high-pressure sterilized. Nude mice were maintained in laminar flow shelves under SPF condition. After tumor transplantation, mouse weight and tumor size in each compound dosage group were dynamically monitored and plotted.

[2] = system: purified bovine brain tubulin; test: In vitro microtubule dynamics (dynamic instability) assay, video microscopy; assay type: biochemical
Protocol: Tubulin Purification and Microtubule Dynamics Assays. Tubulin was purified, as described in the literature (“Kinetic stabilization of microtubule dynamic instability in vitro by vinblastine”, Toso, R. J., Jordan, […]., Matsumoto, B. and Wilson, L., Biochemistry, 1993, 32, 1285-1293). Briefly, microtubule-associated protein-rich bovine brain microtubule protein was prepared by three cycles of assembly and disassembly. Tubulin was purified from other microtubule proteins by elution through a Whatman P-11 phosphocellulose column equilibrated in PEM50 (50 mM Pipes, 1 mM MgSO4, 1 mM EGTA, 0.1 mM GTP). Purified tubulin (>99% pure) was drop-frozen in liquid nitrogen and stored at -70° C. […] The dynamics of individual microtubules were recorded at 37° C. using differential interference contrast enhanced video microscopy. The ends were designated as plus or minus on the basis of the growth rate, the number of microtubules that grew at opposite ends of the seeds, and the relative lengths of the microtubules (Panda, D., Goode, […]. and Wilson, L., Kinetic stabilization of microtubule dynamics at steady state by tau and microtubule-binding domains of tau, Biochemistry, 1995, 34, 11117-11127; Walker, R. A., O'Brien, […]., Voter, W. A., Erickson, H. P. and Salmon, E. D., Dynamic instability of individual microtubules analyzed by video light microscopy: rate constants and transition frequencies, J. Cell Biol. 1988, 107, 1437-1448). Plus ends were analyzed for 10 minutes per slide during the steady-state phase of polymerization ( 45 min after initiation of polymerization). Life histories of individual microtubules were collected as described by Panda et al. 1995 (Panda, D., Goode, […]. and Wilson, L., Kinetic stabilization of microtubule dynamics at steady state by tau and microtubule-binding domains of tau, Biochemistry, 1995, 34 11117-11127) with modifications. Data points were collected at 1-3 s intervals. […] Average rates, lengths and durations are the averages of independent events. The catastrophe frequency was calculated by dividing the number of shortening events by the total time of growth and attenuation tracked, and rescue frequency was calculated by dividing the number of rescue events by the total time of shortening tracked. To control for experimental error, each condition was filmed over multiple days using at least two distinct tubulin/GTP mixtures (2-3 slides each). No gross variation in microtubule dynamics was observed between mixtures or slides of a given condition. The concentration of drug used in dynamic instability assays was chosen by initially observing microtubules stabilized with half the concentration used in microtubule assembly assays.

[3] = 20 mg/kg iv x7 qd, 7 days after transplantation
[4] = 50 mg/kg iv x7 qd, 7 days after transplantation
[5] = shortening events, ACEA100108 .2uM

## Fc1ccc(CSSSCc2ccc(F)cc2)cc1 [ACEA100108, Di(p-fluorobenzyl)trisulfide]
[1]; 8 mg/kg/d iv x7 qd, 0 day (beginning)
  Body weight of mice: 18.0 g and 18 ± 0.6 g
[1]; 8 mg/kg/d iv x7 qd, 7 day
  Body weight of mice: 19.5 ± 1 g
[1]; 8 mg/kg/d iv x7 qd, 14 d
  Body weight of mice: 21.5 ± 1 g
[1]; 8 mg/kg/d iv x7 qd, 21 d
  Body weight of mice: 22.3 ± 1.6 g
[1]; 8 mg/kg/d iv x7 qd, 24 d (end)
  Body weight of mice: 23.0 g and 23 ± 1.5 g
[1]; 8 mg/kg/d iv x7 qd
  tumor inhibition rate %: 31.40%
[1]; [3]
  Mice with palpable tumor / total mice: 5/6††
  Tumor volume (cm^3): 0.01 cm^3
[1]; 20 mg/kg iv x7 qd, 14 d
  Tumor volume (cm^3): 0.049 ± 0.03 cm^3
[1]; 20 mg/kg iv x7 qd, 21 d
  Tumor volume (cm^3): 0.167 ± 0.03 cm^3
[1]; 20 mg/kg iv x7 qd, 24 d (end)
  Tumor volume (cm^3): 0.488 cm^3 and 0.488 ± 0.07 cm^3
[1]; 20 mg/kg/d iv x7 qd
  TV inhibition rate % T/C: 27.82%
  Tumor weight: 0.755 ± 0.09 g
  tumor inhibition rate %: 56.10%
[1]; 20 mg/kg/d iv x7 qd, 0 day (beginning)
  Body weight of mice: 17.6 g and 17.6 ± 0.8 g
[1]; 20 mg/kg/d iv x7 qd, 7 day
  Body weight of mice: 19.7 ± 1 g
[1]; 20 mg/kg/d iv x7 qd, 14 d
  Body weight of mice: 20.8 ± 1 g
[1]; 20 mg/kg/d iv x7 qd, 21 d
  Body weight of mice: 22.7 ± 1.2 g
[1]; 20 mg/kg/d iv x7 qd, 24 d (end)
  Body weight of mice: 23.0 g and 23 ± 1.2 g
[1]; [4]
  Mice with palpable tumor / total mice: 3/6††
  Tumor volume (cm^3): 0.01 cm^3
[1]; 50 mg/kg iv x7 qd, 14 d
  Tumor volume (cm^3): 0.023 ± 0.02 cm^3
[1]; 50 mg/kg iv x7 qd, 21 d
  Tumor volume (cm^3): 0.112 ± 0.03 cm^3
[1]; 50 mg/kg iv x7 qd, 24 d (end)
  Tumor volume (cm^3): 0.310 cm^3 and 0.31 ± 0.05 cm^3
[1]; 50 mg/kg/d iv x7 qd
  TV inhibition rate % T/C: 17.67%
  Tumor weight: 0.617 ± 0.09 g
  tumor inhibition rate %: 64.13%
[1]; 50 mg/kg/d iv x7 qd, 0 day (beginning)
  Body weight of mice: 18.1 g and 18.1 ± 1.1 g
[1]; 50 mg/kg/d iv x7 qd, 7 day
  Body weight of mice: 18.8 ± 0.8 g
[1]; 50 mg/kg/d iv x7 qd, 14 d
  Body weight of mice: 20.5 ± 1 g
[1]; 50 mg/kg/d iv x7 qd, 21 d
  Body weight of mice: 22.2 ± 1.2 g
[1]; 50 mg/kg/d iv x7 qd, 24 d (end)
  Body weight of mice: 23.0 g and 23 ± 1.2 g
[2]; ACEA100108 .2uM
  % time spent in attenuation phase: 69%
  % time spent in growth phase: 30%
  % time spent in shortening phase: 1%
  Dynamicity: 0.83 um/min
  Frequency of transitions ± SD: Catastrophes: 0.09 ± 0.03 events/min
  Frequency of transitions ± SD: Rescues: 9.4 ± 3.0 events/min
  Frequency of transitions ± SD: Total: 0.32 ± 0.06 events/min
  Growth Rate ± SEM: 1.59 ± 0.1 um/min
  Mean duration of attenuation ± SEM: 3.74 ± 0.7
  Shortening Rate ± SEM: 35.8 ± 4.3 um/min
[2]; growth events, ACEA100108 .2uM
  Duration of Event: 2.04 ± 0.3 min
  Length of Excursion: 3.24 ± 0.3 um
[2]; plus ends, steady state
  Effect on duration of growth events: increased the duration of growth events
  Effect on length of growth events: increased the duration of growth events and the average length of growth events
  Effect on length of shortening events: strong effect upon the length of shortening events
[2]; [5]
  Duration of Event: 0.11 ± 0.02 min
  Length of Excursion: 3.79 ± 0.3 um
